Measurements published in US9499466B2, “Diene-based carboxylate anion and salt thereof, and polymerizable or curable composition thereof” (NIPPON SHOKUBAI CO., LTD., priority 2010, dated 2016).

What was measured:
[1] = Adhesion of cured material to PET film (cross-cut method, JIS K 5600-5-6); settings: UV-cured film on surface-untreated PET film, cross-cut 10×10
Experimental: Each compound shown in Table 11 was formed into a UV-cured film on a PET film in the same manner as in the pencil hardness test, except that the PET film used as a substrate was a surface-untreated polyethylene terephthalate (PET) film (Lumirror L-50T60, produced by Toray Industries, Inc.).
The adhesion of the UV-cured film to the PET film was evaluated based on JIS K 5600-5-6 (cross-cut method). The number of divided segments was 10×10 segments=100 segments. The adhesion was evaluated by the number of the segments which remain without peeling or damage in 100 segments.

[2] = Solubility test (film-forming method); settings: solvent dropped on film on glass plate; Water
Experimental: Each compound was applied on a glass plate and the glass plate was leaned against the wall. Each solvent shown in Table 5 was dropped (5 to 6 drops) on the glass plate with a pasteur pipette. The glass plate was visually observed after the dropped solvent was dried, the surface was optionally rubbed with a spatula, and the solubility (film-forming method) was evaluated according to the criteria shown in Table 4.

[3] = Solubility test (dissolution method); settings: for Solubility (dissolution method) Water: mixed at 1%, 3%, 5%, 10%, 20% or more
From the text: The solubility evaluation by the dissolution method requires complicated operations and a large amount of test sample. Therefore, this test is not suitable for screening. However, the solubility of each compound can be more accurately evaluated.

Row | Compound | Adhesion (segments remaining without peeling or damage in 100 segments) [1] | Solubility (film-forming method) Water [2] | Solubility (dissolution method) Acetone [3] | Solubility (dissolution method) Acetonitrile [3] | Solubility (dissolution method) Ethyl acetate [3] | Solubility (dissolution method) Methanol [3] | Solubility (dissolution method) THF [3] | Solubility (dissolution method) Toluene [3] | Solubility (dissolution method) Water [3]
1 | C=CCOCC(=C)C(=O)[O-].C=CCOCC(=C)C(=O)[O-].[Zn+2] [Zn(AMA)2] | 100/100 | X-Δ | – | – | – | – | – | – | –
2 | C=CCOCC(=C)C(=O)[O-].C=CCOCC(=C)C(=O)[O-].[O]=[Zr+2] [ZrO(AMA)2] | 100/100 | – | ◯◯ (Become uniform and transparent at a compound concentration of 20% or more) | ◯◯ (Become uniform and transparent at a compound concentration of 20% or more) | ◯◯ (Become uniform and transparent at a compound concentration of 20% or more) | ◯◯ (Become uniform and transparent at a compound concentration of 20% or more) | ◯◯ (Become uniform and transparent at a compound concentration of 20% or more) | ◯◯ (Become uniform and transparent at a compound concentration of 20% or more) | X (Not become uniform and transparent even at a compound concentration of 1%)
3 | C=CCOCC(=C)C(=O)OCCOCCOC(=O)C(=C)COCC=C [DEG-AMA, diethylene glycol di(α-allyloxymethyl acrylate), reference compound] | 85/100 | – | ◯◯ (Become uniform and transparent at a compound concentration of 20% or more) | ◯◯ (Become uniform and transparent at a compound concentration of 20% or more) | ◯◯ (Become uniform and transparent at a compound concentration of 20% or more) | ◯◯ (Become uniform and transparent at a compound concentration of 20% or more) | ◯◯ (Become uniform and transparent at a compound concentration of 20% or more) | ◯◯ (Become uniform and transparent at a compound concentration of 20% or more) | X (Not become uniform and transparent even at a compound concentration of 1%)
4 | C=CCOCC(=C)C(=O)OCC(C)(C)COC(=O)C(=C)COCC=C [NPG-AMA, neopentyl glycol di(α-allyloxymethyl acrylate), reference compound] | 72/100 | – | ◯◯ (Become uniform and transparent at a compound concentration of 20% or more) | ◯◯ (Become uniform and transparent at a compound concentration of 20% or more) | ◯◯ (Become uniform and transparent at a compound concentration of 20% or more) | ◯◯ (Become uniform and transparent at a compound concentration of 20% or more) | ◯◯ (Become uniform and transparent at a compound concentration of 20% or more) | ◯◯ (Become uniform and transparent at a compound concentration of 20% or more) | X (Not become uniform and transparent even at a compound concentration of 1%)
